One assay has as its target T1, Jarid1B (Homo sapiens, UniProt Q9UGL1).
T1 construct: purchased BPS Bioscience or custom made by MolecularThroughput 50121
T1 sequence (Q9UGL1 2-751): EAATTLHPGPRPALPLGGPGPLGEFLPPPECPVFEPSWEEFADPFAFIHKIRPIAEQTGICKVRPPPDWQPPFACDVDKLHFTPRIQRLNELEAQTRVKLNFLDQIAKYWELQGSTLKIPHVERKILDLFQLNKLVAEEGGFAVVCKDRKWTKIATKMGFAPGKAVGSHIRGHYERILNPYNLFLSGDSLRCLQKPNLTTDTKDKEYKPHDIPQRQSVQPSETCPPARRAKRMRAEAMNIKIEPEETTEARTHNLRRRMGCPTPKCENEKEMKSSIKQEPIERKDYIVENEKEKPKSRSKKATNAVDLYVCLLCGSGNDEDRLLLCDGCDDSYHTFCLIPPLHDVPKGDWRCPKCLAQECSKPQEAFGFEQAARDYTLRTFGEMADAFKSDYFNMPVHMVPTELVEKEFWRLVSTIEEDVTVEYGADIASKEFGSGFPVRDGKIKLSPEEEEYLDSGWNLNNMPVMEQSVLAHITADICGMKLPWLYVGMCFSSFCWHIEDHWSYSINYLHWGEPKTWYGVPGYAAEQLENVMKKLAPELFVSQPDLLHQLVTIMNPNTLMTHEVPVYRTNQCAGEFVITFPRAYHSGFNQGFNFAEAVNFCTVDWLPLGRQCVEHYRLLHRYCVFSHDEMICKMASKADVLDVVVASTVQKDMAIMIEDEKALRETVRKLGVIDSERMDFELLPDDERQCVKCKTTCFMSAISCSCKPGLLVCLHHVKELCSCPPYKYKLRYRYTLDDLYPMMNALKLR
Briefly: Jarid1B in vitro enzyme inhibition assay (TR-FRET). Format: biochemical. The method, boiled down: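 TR-FRET read-out of demethylated product (Eu-anti-H3K4me1-2, streptavidin-APC) after EDTA quench; ratio 665/615 fitted to IC50. Reaction: 30 min at RT, 0.8 nM baculovirus Jarid1B residues 2-751, 2 μM α-ketoglutarate, 300 nM H3K4me3-biotin peptide, pH 7.3 buffer with Fe(II) and ascorbate.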
For orientation: Time-resolved FRET reads energy transfer from a long-lived donor to a nearby acceptor.

A further assay deals with T2, JMJD2C (Homo sapiens, UniProt Q9H3R0).
T2 construct: purchased BPS Bioscience 50105
T2 sequence (Q9H3R0 2-372): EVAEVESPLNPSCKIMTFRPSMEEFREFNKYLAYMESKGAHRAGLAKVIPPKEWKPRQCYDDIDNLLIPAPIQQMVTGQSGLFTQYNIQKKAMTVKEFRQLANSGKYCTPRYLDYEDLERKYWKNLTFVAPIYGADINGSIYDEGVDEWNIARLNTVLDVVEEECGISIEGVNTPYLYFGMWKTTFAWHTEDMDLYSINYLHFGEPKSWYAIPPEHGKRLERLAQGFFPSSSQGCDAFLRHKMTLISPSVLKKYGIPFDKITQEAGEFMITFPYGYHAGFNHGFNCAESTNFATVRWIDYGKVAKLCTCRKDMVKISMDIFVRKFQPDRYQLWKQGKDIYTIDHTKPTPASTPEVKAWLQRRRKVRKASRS
The assay is described as follows: JMJD2C in vitro enzyme inhibition assay (TR-FRET). The format is biochemical. In a few lines: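 IC50 came from 665/615 TR-FRET ratios (Eu-anti-H3K9me2 antibody, streptavidin-APC, EDTA quench) over 11-point inhibitor series. Reactions ran 30 min at room temperature: 0.3 nM JMJD2C (AA 2-372, baculovirus), 300 nM biotinylated H3K9me3 peptide, 2 μM alpha-ketoglutarate, 2 μM Fe(II), ascorbate, pH 7.3.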

Each structure is given as a SMILES string.

`CNCC(=O)N1CC[C@H](n2cc(Oc3nc(O)c4ccncc4n3)cn2)C1` [Example 144, 1-[(3S)-3-[4-({4-hydroxypyrido[3,4-d]pyrimidin-2-yl}oxy)-1H-pyrazol-1-yl]pyrrolidin-1-yl]-2-(methylamino)ethan-1-one]: the IC50 at Jarid1B and against JMJD2C was at most 100 nM each time.

For `C[C@@H](c1ccccc1F)n1cc(Oc2nc(O)c3ccncc3n2)cn1` [Example 120, 2-({1-[(1s)-1-(2-fluorophenyl)ethyl]-1H-pyrazol-4-yl}oxy)pyrido[3,4-d]pyrimidin-4-ol], the IC50 against Jarid1B and at JMJD2C was at most 100 nM each time.

Regarding `Oc1nc(Oc2cnn([C@@H]3CCCN(c4ccc(F)cc4)C3)c2)nc2cnccc12` [Example 159, 2-({1-[(3R)-1-(4-fluorophenyl)piperidin-3-yl]-1H-pyrazol-4-yl}oxy)pyrido[3,4-d]pyrimidin-4-ol], the IC50 against Jarid1B and against JMJD2C was at most 100 nM in each case.

For the compound `Oc1nc(Oc2cnn(C3CCCN(c4ccc(F)cc4)C3)c2)nc2cnccc12` (stereo in doubt) [Example 169, 2-({1-[(3R)-1-(4-fluorophenyl)piperidin-3-yl]-1H-pyrazol-4-yl}oxy)pyrido[3,4-d]pyrimidin-4-ol], the half-inhibitory concentration (IC50) at Jarid1B and on JMJD2C was at most 100 nM each time.

Consider `C[C@H](c1ccccc1)n1cc(Oc2nc(O)c3ccncc3n2)cn1` [Example 117, 2-({1-[(1R)-1-phenylethyl]-1H-pyrazol-4-yl}oxy)pyrido[3,4-d]pyrimidin-4-ol], for which the IC50 against Jarid1B and against JMJD2C was at most 100 nM in each case.

In the case of `Oc1nc(OCCc2ccc(Cl)c(Cl)c2)nc2cnccc12` [Example 175, 2-[2-(3,4-dichlorophenyl)ethoxy]pyrido[3,4-d]pyrimidin-4-ol], the IC50 (usually the concentration at which inhibition is half-maximal) was 1000 to 10000 nM at Jarid1B and at most 100 nM against JMJD2C.

`COCCOc1nc(O)c2ccncc2n1` [Example 22, 2-(2-methoxyethoxy)pyrido[3,4-d]pyrimidin-4-ol]: the IC50 against Jarid1B and at JMJD2C was 100 to 1000 nM each time.

In the case of `Cn1cnc(-c2nccc3c(O)nc(O[C@@H](c4ccccc4)C(F)(F)F)nc23)c1` [Example 109, 8-(1-methyl-1H-imidazol-4-yl)-2-[(1S)-2,2,2-trifluoro-1-phenylethoxy]pyrido[3,4-d]pyrimidin-4-ol], the 50% inhibitory concentration (IC50) on Jarid1B lay in the range of 1000 to 10000 nM; against JMJD2C, 100 to 1000 nM.

As to `CCS(=O)(=O)N1CC[C@H](n2cc(Oc3nc(O)c4ccncc4n3)cn2)C1` [Example 136, 2-({1-[(3S)-1-(ethanesulfonyl)pyrrolidin-3-yl]-1H-pyrazol-4-yl}oxy)pyrido[3,4-d]pyrimidin-4-ol], the IC50 against Jarid1B and against JMJD2C was at most 100 nM in each case.

`Oc1nc(Oc2cnn([C@H]3CCCN(Cc4ccccc4)C3)c2)nc2cnccc12` [Example 168, 2-({1-[(3S)-1-benzylpiperidin-3-yl]-1H-pyrazol-4-yl}oxy)pyrido[3,4-d]pyrimidin-4-ol]: the IC50 against Jarid1B and at JMJD2C was at most 100 nM throughout.

For `Cn1cnc(-c2nccc3c(O)nc(OCc4ccc(Cl)cc4)nc23)c1` [Example 112, 2-[(4-chlorophenyl)methoxy]-8-(1-methyl-1H-imidazol-4-yl)pyrido[3,4-d]pyrimidin-4-ol], the IC50 against Jarid1B is at most 100 nM; against JMJD2C, 100 to 1000 nM.

As for `Cn1cnc(-c2nccc3c(O)nc(OCc4ccccc4C(F)(F)F)nc23)c1` [Example 107, 8-(1-methyl-1H-imidazol-4-yl)-2-{[2-(trifluoromethyl)phenyl]methoxy}pyrido[3,4-d]pyrimidin-4-ol], the values for the IC50 on Jarid1B and on JMJD2C were at most 100 nM and 100 to 1000 nM, respectively.

For the compound `CC(Cc1ccccc1)Oc1nc(O)c2ccncc2n1` (stereo not shown) [Example 19, 2-(1-phenylpropan-2-yloxy)pyrido[3,4-d]pyrimidin-4-ol], the IC50 against Jarid1B and on JMJD2C was 1000 to 10000 nM in each case.

Consider `O=C(c1ccccc1)N1CCC[C@@H](n2cc(Oc3nc(O)c4ccncc4n3)cn2)C1` [Example 157, 2-({1-[(3R)-1-benzoylpiperidin-3-yl]-1H-pyrazol-4-yl}oxy)pyrido[3,4-d]pyrimidin-4-ol], for which the 50% inhibitory concentration (IC50) against Jarid1B and at JMJD2C was at most 100 nM each time.

Source of the values: patent publication US10526327B2, “Histone demethylase inhibitors” (CELGENE QUANTICEL RESEARCH, INC., priority 2013, dated 2020).
